The NIST ThermoML archive (doi:10.1016/j.jct.2009.06.021)
Numbers after ± are expanded uncertainties.

Columns and labels:
[1] = for surface tension liquid-gas: Maximal bubble pressure; for mass density: 101.33 kPa, Liquid, Vibrating tube method
[2] = xn = mol fraction of the nth substance listed; conditions: for surface tension liquid-gas: Maximal bubble pressure; for mass density: 101 kPa, Liquid, Vibrating tube method

CCCCS(=O)CCCC [dibutyl sulfoxide]
[1], 313.15 K
Conditions | mass density [kg/m3] | surface tension liquid-gas [mN/m]
– | 922.34 ± 4.6 | 28.5 ± 0.3

CCCCS(=O)CCCC [dibutyl sulfoxide] + ClC(Cl)(Cl)Cl
[2], 313.15 K
Conditions | mass density [kg/m3] | surface tension liquid-gas [mN/m]
x2 = 0.1074 | 963.82 ± 0.25 | –
x2 = 0.2232 | – | 28 ± 0.3
x2 = 0.2288 | 1017.38 ± 0.26 | –
x2 = 0.303 | 1052.44 ± 0.29 | –
x2 = 0.4057 | 1106.17 ± 0.33 | –
x2 = 0.4457 | – | 27.3 ± 0.3
x2 = 0.4984 | 1157.99 ± 0.38 | –
x2 = 0.51 | – | 27 ± 0.3
x2 = 0.5476 | – | 26.7 ± 0.3
x2 = 0.601 | 1222.74 ± 0.44 | –
x2 = 0.6539 | – | 25.9 ± 0.3
x2 = 0.7009 | 1292.11 ± 0.5 | –
x2 = 0.7038 | – | 25.4 ± 0.3
x2 = 0.7998 | – | 24.5 ± 0.3
x2 = 0.8019 | 1370.59 ± 0.57 | –
x2 = 0.8962 | – | 23.5 ± 0.3

CC[S+]([O-])CC [diethyl sulfoxide]
[1]
Conditions | mass density [kg/m3] | surface tension liquid-gas [mN/m]
298.15 K | 1009.51 ± 0.24 | 34.6 ± 0.3
303.15 K | 1005.14 ± 0.24 | 34.3 ± 0.3
308.15 K | 1000.77 ± 0.23 | 34 ± 0.3
313.15 K | 996.4 ± 0.23 | 33.7 ± 0.3

CC[S+]([O-])CC [diethyl sulfoxide] + ClC(Cl)(Cl)Cl
[2]
Conditions | mass density, 298.15 K [kg/m3] | mass density, 303.15 K [kg/m3] | mass density, 308.15 K [kg/m3] | mass density, 313.15 K [kg/m3] | surface tension liquid-gas, 298.15 K [mN/m] | surface tension liquid-gas, 303.15 K [mN/m] | surface tension liquid-gas, 308.15 K [mN/m] | surface tension liquid-gas, 313.15 K [mN/m]
x2 = 0.0408 | 1036.23 ± 0.28 | 1031.26 ± 0.28 | 1024.88 ± 0.28 | 1020.51 ± 0.27 | – | – | – | –
x2 = 0.1016 | – | – | – | – | 35 ± 0.3 | 34.7 ± 0.3 | 34.1 ± 0.3 | 33.6 ± 0.3
x2 = 0.1065 | 1074.77 ± 0.31 | 1069.42 ± 0.31 | 1064.04 ± 0.3 | 1058.67 ± 0.3 | – | – | – | –
x2 = 0.218 | – | – | – | – | 33.9 ± 0.3 | 33.4 ± 0.3 | 32.7 ± 0.3 | 32.1 ± 0.3
x2 = 0.2249 | 1142.65 ± 0.36 | 1137.29 ± 0.36 | 1131.92 ± 0.36 | 1126.55 ± 0.35 | – | – | – | –
x2 = 0.3172 | – | – | – | – | 32 ± 0.3 | 31.5 ± 0.3 | 30.9 ± 0.3 | 30.3 ± 0.3
x2 = 0.3231 | 1198.5 ± 0.41 | 1192.67 ± 0.4 | 1186.82 ± 0.4 | 1180.98 ± 0.39 | – | – | – | –
x2 = 0.4093 | – | – | – | – | 30.3 ± 0.3 | 29.8 ± 0.3 | 29.2 ± 0.3 | 28.6 ± 0.3
x2 = 0.4567 | 1273.33 ± 0.47 | 1266.87 ± 0.47 | 1260.4 ± 0.5 | 1253.92 ± 0.46 | – | – | – | –
x2 = 0.4782 | – | – | – | – | 29.1 ± 0.3 | 28.6 ± 0.3 | 28.1 ± 0.3 | 27.6 ± 0.3
x2 = 0.5102 | – | – | – | – | 28.5 ± 0.3 | 28 ± 0.3 | 27.6 ± 0.3 | 27.1 ± 0.3
x2 = 0.6562 | – | – | – | – | 27 ± 0.3 | 26.5 ± 0.3 | 25.9 ± 0.3 | 25.3 ± 0.3
x2 = 0.7363 | 1433.49 ± 0.62 | 1425.5 ± 0.6 | 1417.48 ± 0.6 | 1409.44 ± 0.6 | – | – | – | –
x2 = 0.7512 | – | – | – | – | 26.2 ± 0.3 | 25.7 ± 0.3 | 25.1 ± 0.3 | 24.5 ± 0.3
x2 = 0.8701 | – | – | – | – | 25.3 ± 0.3 | 24.7 ± 0.3 | 24.1 ± 0.3 | 23.5 ± 0.3
x2 = 0.8985 | 1527.46 ± 0.71 | 1519.07 ± 0.7 | 1509.96 ± 0.69 | 1500.84 ± 0.68 | – | – | – | –
x2 = 0.9419 | – | – | – | – | 24.6 ± 0.3 | 24 ± 0.3 | 23.5 ± 0.3 | 22.9 ± 0.3
x2 = 0.9533 | 1558.34 ± 0.74 | 1548.91 ± 0.73 | 1539.42 ± 0.72 | 1529.92 ± 0.71 | – | – | – | –

C[S+](C)[O-] [dimethyl sulfoxide]
[1]
Conditions | mass density [kg/m3] | surface tension liquid-gas [mN/m]
298.15 K | 1095.35 ± 0.31 | 42.5 ± 0.4
303.15 K | 1090.33 ± 0.3 | 42 ± 0.4
308.15 K | 1085.32 ± 0.3 | 41.5 ± 0.4
313.15 K | 1080.29 ± 0.29 | 41 ± 0.4

CCCS(=O)CCC [dipropyl sulfoxide]
[1]
Conditions | mass density [kg/m3] | surface tension liquid-gas [mN/m]
298.15 K | 957.77 ± 0.23 | 32.6 ± 0.3
303.15 K | 953.67 ± 0.23 | 32 ± 0.3
308.15 K | 949.58 ± 0.23 | 31.5 ± 0.3
313.15 K | 945.5 ± 0.2 | 31 ± 0.3

CCCS(=O)CCC [dipropyl sulfoxide] + ClC(Cl)(Cl)Cl
[2]
Conditions | mass density, 298.15 K [kg/m3] | mass density, 303.15 K [kg/m3] | mass density, 308.15 K [kg/m3] | mass density, 313.15 K [kg/m3] | surface tension liquid-gas, 298.15 K [mN/m] | surface tension liquid-gas, 303.15 K [mN/m] | surface tension liquid-gas, 308.15 K [mN/m] | surface tension liquid-gas, 313.15 K [mN/m]
x2 = 0.0837 | 997.89 ± 0.25 | 993.53 ± 0.25 | 989.15 ± 0.25 | 984.79 ± 0.25 | – | – | – | –
x2 = 0.2049 | – | – | – | – | 31.2 ± 0.3 | 30.8 ± 0.3 | 30.4 ± 0.3 | 29.9 ± 0.3
x2 = 0.2132 | 1061.92 ± 0.3 | 1057.03 ± 0.29 | 1052.27 ± 0.29 | 1047.44 ± 0.28 | – | – | – | –
x2 = 0.2784 | 1097.07 ± 0.33 | 1091.98 ± 0.32 | 1086.9 ± 0.3 | 1081.81 ± 0.31 | – | – | – | –
x2 = 0.2998 | – | – | – | – | 30.8 ± 0.3 | 30.4 ± 0.3 | 29.9 ± 0.3 | 29.5 ± 0.3
x2 = 0.4165 | – | – | – | – | 30.4 ± 0.3 | 29.8 ± 0.3 | 29.3 ± 0.3 | 28.7 ± 0.3
x2 = 0.4545 | 1197.46 ± 0.41 | 1191.59 ± 0.4 | 1185.73 ± 0.4 | 1179.84 ± 0.39 | – | – | – | –
x2 = 0.5304 | – | – | – | – | 29.6 ± 0.3 | 28.9 ± 0.3 | 28.2 ± 0.3 | 27.7 ± 0.3
x2 = 0.6109 | – | – | – | – | 28.8 ± 0.3 | 28.1 ± 0.3 | 27.5 ± 0.3 | 26.9 ± 0.3
x2 = 0.6285 | 1305.93 ± 0.5 | 1299.22 ± 0.5 | 1292.38 ± 0.49 | 1285.53 ± 0.49 | – | – | – | –
x2 = 0.704 | 1356.22 ± 0.55 | 1348.94 ± 0.55 | 1341.67 ± 0.54 | 1334.38 ± 0.53 | – | – | – | –
x2 = 0.7078 | – | – | – | – | 27.6 ± 0.3 | 26.9 ± 0.3 | 26.2 ± 0.3 | 25.7 ± 0.3
x2 = 0.8055 | – | – | – | – | 26.3 ± 0.3 | 25.7 ± 0.3 | 25.1 ± 0.3 | 24.5 ± 0.3
x2 = 0.8468 | 1461.39 ± 0.65 | 1453.03 ± 0.64 | 1444.65 ± 0.63 | 1436.24 ± 0.63 | – | – | – | –
x2 = 0.8547 | 1466.95 ± 0.66 | 1458.55 ± 0.65 | 1450.15 ± 0.64 | 1441.7 ± 0.6 | – | – | – | –
x2 = 0.8995 | – | – | – | – | 25.3 ± 0.3 | 24.7 ± 0.3 | 24.1 ± 0.3 | 23.5 ± 0.3
x2 = 0.9178 | 1516.99 ± 0.71 | 1508.02 ± 0.7 | 1499.04 ± 0.69 | 1490.03 ± 0.68 | – | – | – | –
x2 = 0.9588 | 1550.62 ± 0.74 | 1541.21 ± 0.73 | 1531.83 ± 0.72 | 1522.41 ± 0.71 | – | – | – | –

ClC(Cl)(Cl)Cl [tetrachloromethane]
[1]
Conditions | mass density [kg/m3] | surface tension liquid-gas [mN/m]
298.15 K | 1584.36 ± 0.76 | 24.2 ± 0.3
303.15 K | 1574.61 ± 0.75 | 23.7 ± 0.3
308.15 K | 1564.83 ± 0.74 | 23 ± 0.3
313.15 K | 1554.96 ± 0.73 | 22.3 ± 0.3
